How the values were obtained:
[1] = Cyto-toxicity (MTT assay); type: cell-based
Experimental: On day 1 calculate the number of cells required for the assay and seed 3×10^4 cells in 200 μl per well. Weigh the compound and dissolve it in DMSO to get 10 mM stock which is further diluted to 3 mM and 1 mM. […] Add DMSO to controls in a way to obtain final concentration of solvent that is not greater than 1%. Incubate for 4 days in 5% CO2 incubator at 37° C. On day 4, 100 μl of medium was removed from each well without disturbing the cells. Add 10 μl of MTT reagent and incubate for 4 hours at 5% CO2 incubator at 37° C. for formation of crystals. Add 200 μl of 0.1N acidic isopropanol to dissolve the crystals and read the plate at 590 nm. The values are mentioned in below Table-3 and Table-3A.

[2] = Single dose oral pharmacokinetic study; type: in vivo; settings: mouse, Mice oral PK @30 mg/kg, plasma, vehicle 10% Solutol+20% PEG; for AUC(0-t): read-out: AUC0-t; for Cmax: read-out: Cmax
Experimental: The test item was administered through oral route to animals (rat/mice) at 30 mg/kg dose in a suitable vehicle (10% Solutol+20% PEG) at 10 ml/kg dose volume. Blood samples (˜50 μL at each time point) were collected from retro-orbital plexus using K3 EDTA as anticoagulant in eppendorf tubes at defined time intervals 30 minutes, 1 hour, 2 hour, 4 hour, 8 hour, 24 hour & 48 hour under light ether anaesthesia. The samples were centrifuged at 3500×g to separate plasma and stored at −80° C. until analysis. Plasma 25 μl for Mice were processed as per described in sample preparation.
Standard solutions of the test compound 1 mg/mL solutions were prepared in DMSO and further dilutions were made in methanol. […] To the test compound plasma extraction was carried out using Acetonitrile precipitation. After reconstitution with solvent (50% Acetonitrile in Buffer) samples were analyzed by LCMSMS to get the concentrations to calculate PK Parameters.

Cc1ccc(NC(=O)NC(C)(C)C(=O)N[C@@]23CC[C@]4(C)[C@H](CC[C@@H]5[C@@]6(C)CC[C@H](OC(=O)[C@H]7C[C@@H](C(=O)O)C7(C)C)C(C)(C)[C@@H]6CC[C@]54C)C2=C(C(C)C)C(=O)C3)cn1 [Example 71, (1R,3S)-3-((((3aR,5aR,5bR,7aR,9S,11aR,11bR,13aS)-1-isopropyl-5a,5b,8,811a-pentamethyl-3a-(2-methyl-2-(3-(6-methylpyridin-3-yl)ureido)propanamido)-2-oxo-3,3a,4,5,5a,5b,6,7,7a,8,9,10,11,11a,11b,12,13,13a-octadecahydro-2H-cyclopenta[a]chrysen-9-yl)oxy)carbonyl)-2,2-dimethylcyclobutane-1-carboxylic acid]
viability at 4 days, 0.01 µM [1]: 41% | viability at 4 days, 0.1 µM [1]: 5% | viability at 4 days, 1 µM [1]: 3% | AUC(0-t) [2]: 130 µg·h/mL | Cmax [2]: 19300 ng/mL

Cc1ccc(C(=O)NC(C)(C)C(=O)N[C@@]23CC[C@]4(C)[C@H](CC[C@@H]5[C@@]6(C)CC[C@H](OC(=O)[C@H]7C[C@@H](C(=O)O)C7(C)C)C(C)(C)[C@@H]6CC[C@]54C)C2=C(C(C)C)C(=O)C3)cn1 [Example 61, (1R,3S)-3-((((3aR,5aR,5bR,7aR,9S,11aR,11bR,13aS)-1-isopropyl-5a,5b,8,8,11a-pentamethyl-3a-(2-methyl-2-(6-methylnicotinamido)propanamido)-2-oxo-3,3a,4,5,5a,5b,6,7,7a,8,9,10,11,11a,11b,12,13,13a-octadecahydro-2H-cyclopenta[a]chrysen-9-yl)oxy)carbonyl)-2,2-dimethylcyclobutane-1-carboxylic acid]
viability at 4 days, 0.01 µM [1]: 88% | viability at 4 days, 0.1 µM [1]: 42% | viability at 4 days, 1 µM [1]: 2% | AUC(0-t) [2]: 615 µg·h/mL | Cmax [2]: 45700 ng/mL

CC(C)C1=C2[C@H]3CC[C@@H]4[C@@]5(C)CC[C@H](OC(=O)[C@H]6C[C@@H](C(=O)O)C6(C)C)C(C)(C)[C@@H]5CC[C@@]4(C)[C@]3(C)CC[C@@]2(NC(=O)C2(NC(=O)c3cccnc3N3CCOCC3)CCC2)CC1=O [Example 45, (1R,3S)-3-((((3aR,5aR,5bR,7aR,9S,11aR,11bR,13aS)-1-isopropyl-5a,5b,8,8,11a-pentamethyl-3a-(1-(2-morpholinonicotinamido)cyclobutane-1-carboxamido)-2-oxo-3,3a,4,5,5a,5b,6,7,7a,8,9,10,11,11a,11b,12,13,13a-octadecahydro-2H-cyclopenta[a]chrysen-9-yl)oxy)carbonyl)-2,2-dimethylcyclobutane-1-carboxylic acid]
AUC(0-t) [2]: 214 µg·h/mL | Cmax [2]: 21200 ng/mL

Cc1ccc(C(=O)NC2(C(=O)N[C@@]34CC[C@]5(C)[C@H](CC[C@@H]6[C@@]7(C)CC[C@H](OC(=O)[C@H]8C[C@@H](C(=O)O)C8(C)C)C(C)(C)[C@@H]7CC[C@]65C)C3=C(C(C)C)C(=O)C4)CCC2)cn1 [Example 43, (1R,3S)-3-((((3aR,5aR,5bR,7aR,9S,11aR,11bR,13aS)-1-isopropyl-5a,5b,8,8,11a-pentamethyl-3a-(1-(6-methylnicotinamido)cyclobutane-1-carboxamido)-2-oxo-3,3a,4,5,5a,5b,6,7,7a,8,9,10,11,11a,11b,12,13,13a-octadecahydro-2H-cyclopenta[a]chrysen-9-yl)oxy)carbonyl)-2,2-dimethylcyclobutane-1-carboxylic acid]
viability at 4 days, 0.01 µM [1]: 76% | viability at 4 days, 0.1 µM [1]: 26% | viability at 4 days, 1 µM [1]: 3% | AUC(0-t) [2]: 320 µg·h/mL | Cmax [2]: 31300 ng/mL

CCOC(=O)NC(C)(C)C(=O)N[C@@]12CC[C@]3(C)[C@H](CC[C@@H]4[C@@]5(C)CC[C@H](OC(=O)[C@H]6C[C@@H](C(=O)O)C6(C)C)C(C)(C)[C@@H]5CC[C@]43C)C1=C(C(C)C)C(=O)C2 [Example 64, (1R,3S)-3-((((3aR,5aR,5bR,7aR,9S,11aR,11bR,13aS)-3a-(2-((ethoxycarbonyl)amino)-2-methylpropanamido)-1-isopropyl-5a,5b. 8,8,11a-pentamethyl-2-oxo-3,3a,4,5,5a,5b,6,7,7a,8,9,10,11,11a,11b,12,13,13a-octadecahydro-2H-cyclopenta[a]chrysen-9-yl)oxy)carbonyl)-2,2-dimethylcyclobutane-1-carboxylic acid]
viability at 4 days, 0.01 µM [1]: 26% | viability at 4 days, 0.1 µM [1]: 2% | viability at 4 days, 1 µM [1]: 1% | AUC(0-t) [2]: 336 µg·h/mL | Cmax [2]: 27400 ng/mL

CC(C)C1=C2[C@H]3CC[C@@H]4[C@@]5(C)CC[C@H](OC(=O)[C@H]6C[C@@H](C(=O)O)C6(C)C)C(C)(C)[C@@H]5CC[C@@]4(C)[C@]3(C)CC[C@@]2(NC(=O)C(C)(C)NCc2ccccn2)CC1=O [Example 67, (1R,3S)-3-((((3aR,5aR,5bR,7aR,9S,11aR,11bR,13aS)-1-isopropyl-5a,5b,8,8,11a-pentamethyl-3a-(2-methyl-2-((pyridin-2-ylmethyl)amino)propan amido)-2-oxo-3,3a,4,5,5a,5b,6,7,7a,8,9,10,11,11a,11b,12,13,13a-octadecahydro-2H-cyclopenta[a]chrysen-9-yl)oxy)carbonyl)-2,2-dimethylcyclobutane-1-carboxylic acid]
viability at 4 days, 0.01 µM [1]: 59% | viability at 4 days, 0.1 µM [1]: 21% | viability at 4 days, 1 µM [1]: 3% | AUC(0-t) [2]: 86.6 µg·h/mL | Cmax [2]: 24300 ng/mL

CC(C)C1=C2[C@H]3CC[C@@H]4[C@@]5(C)CC[C@H](OC(=O)[C@H]6C[C@@H](C(=O)O)C6(C)C)C(C)(C)[C@@H]5CC[C@@]4(C)[C@]3(C)CC[C@@]2(NC(=O)C(C)(C)NCc2ccc(Cl)cc2)CC1=O [Example 68, (1R,3S)-3-((((3aR,5aR,5bR,7aR,9S,11aR,11bR,13aS)-3a-(2-((4-chlorobenzyl)amino)-2-methylpropanamido)-1-isopropyl-5a,5b,8,8,11a-pentamethyl-2-oxo-3,3a,4,5,5a,5b,6,7,7a,8,9,10,11,11a,11b,12,13,13a-octadecahydro-2H-cyclopenta[a]chrysen-9-yl)oxy)carbonyl)-2,2-dimethylcyclobutane-1-carboxylic acid]
AUC(0-t) [2]: 272 µg·h/mL | Cmax [2]: 20000 ng/mL

Cc1cc(C(=O)NC(C)(C)C(=O)N[C@@]23CC[C@]4(C)[C@H](CC[C@@H]5[C@@]6(C)CC[C@H](OC(=O)[C@H]7C[C@@H](C(=O)O)C7(C)C)C(C)(C)[C@@H]6CC[C@]54C)C2=C(C(C)C)C(=O)C3)c(C)o1 [Example 33, (1R,3S)-3-((((3aR,5aR,5bR,7aR,9S,11aR,11bR,13aS)-3a-(2-(2,5-dimethylfuran-3-carboxamido)-2-methylpropanamido)-1-isopropyl-5a,5b,8,8,11a-pentamethyl-2-oxo-3,3a,4,5,5a,5b,6,7,7a,8,9,10,11,11a,11b,12,13,13a-octadecahydro-2H-cyclopenta[a]chrysen-9-yl)oxy)carbonyl)-2,2-dimethylcyclobutane-1-carboxylic acid]
AUC(0-t) [2]: 231 µg·h/mL | Cmax [2]: 11400 ng/mL

CC(C)C1=C2[C@H]3CC[C@@H]4[C@@]5(C)CC[C@H](OC(=O)[C@H]6C[C@@H](C(=O)O)C6(C)C)C(C)(C)[C@@H]5CC[C@@]4(C)[C@]3(C)CC[C@@]2(NC(=O)C(C)(C)NC(=O)c2cnn3cccnc23)CC1=O [Example 54, (1R,3S)-3-((((3aR,5aR,5bR,7aR,9S,11aR,11bR,13aS)-1-isopropyl-5a,5b,8,8,11a-pentamethyl-3a-(2-methyl-2-(pyrazolo[1,5-a]pyrimidine-3-carboxamido)propanamido)-2-oxo-3,3a,4,5,5a,5b,6,7,7a,8,9,10,11,11a,11b,12,13,13a-octadecahydro-2H-cyclopenta[a]chrysen-9-yl)oxy)carbonyl)-2,2-dimethylcyclobutane-1-carboxylic acid]
AUC(0-t) [2]: 402 µg·h/mL | Cmax [2]: 29200 ng/mL

CC(C)C1=C2[C@H]3CC[C@@H]4[C@@]5(C)CC[C@H](OC(=O)[C@H]6C[C@@H](C(=O)O)C6(C)C)C(C)(C)[C@@H]5CC[C@@]4(C)[C@]3(C)CC[C@@]2(NC(=O)C(C)(C)NC(=O)Cc2ccc(Cl)cc2)CC1=O [Example 53, (1R,3S)-3-((((3aR,5aR,5bR,7aR,9S,11aR,11bR,13aS)-3a-(2-(2-(4-chlorophenyl)acetamido)-2-methylpropanamido)-1-isopropyl-5a,5b,8,8,11a-pentamethyl-2-oxo-3,3a,4,5,5a,5b,6,7,7a,8,9,10,11,11a,11b,12,13,13a-octadecahydro-2H-cyclopenta[a]chrysen-9-yl)oxy)carbonyl)-2,2-dimethylcyclobutane-1-carboxylic acid]
AUC(0-t) [2]: 57.8 µg·h/mL | Cmax [2]: 9750 ng/mL

CC(C)C1=C2[C@H]3CC[C@@H]4[C@@]5(C)CC[C@H](OC(=O)[C@H]6C[C@@H](C(=O)O)C6(C)C)C(C)(C)[C@@H]5CC[C@@]4(C)[C@]3(C)CC[C@@]2(NC(=O)C(C)(C)NC(=O)c2ccc(Cl)cn2)CC1=O [Example 70, (1R,3S)-3-((((3aR,5aR,5bR,7aR,9S,11aR,11bR,13aS)-3a-(2-(5-chloropicolinamido)-2-methylpropanamido)-1-isopropyl-5a,5b,8,8,11a-pentamethyl-2-oxo-3,3a,4,5,5a,5b,6,7,7a,8,9,10,11,11a,11b,12,13,13a-octadecahydro-2H-cyclopenta[a]chrysen-9-yl)oxy)carbonyl)-2,2-dimethylcyclobutane-1-carboxylic acid]
AUC(0-t) [2]: 881 µg·h/mL | Cmax [2]: 36600 ng/mL

— patent US20170008921A1, “C-3 NOVEL TRITERPENONE WITH C-28 REVERSE AMIDE DERIVATIVES AS HIV INHIBITORS” (HETERO RESEARCH FOUNDATION, priority 2015, published 2017)
